The results in this text go back to ChEMBL document CHEMBL3046310, “Synthesis and antimicrobial screening of novel series of imidazo-[1,2-a]pyridine derivatives” (2012).

Common to all, as to format: functional
One assay relates to Staphylococcus aureus. The assay is described as follows: Antimicrobial activity against Staphylococcus aureus MTCC 96 after 24 hr by serial broth dilution method. Particulars: MTCC 96, 24 h. (Broth dilution looks for growth in wells or tubes with falling amounts of substance.)
Another assay concerns Streptococcus pyogenes. The assay is described as follows: Antimicrobial activity against Streptococcus pyogenes MTCC 442 after 24 hr by serial broth dilution method. Particulars: MTCC 442, 24 h.
The test system of a further assay is Aspergillus niger. As to the kind of experiment: Antimicrobial activity against Aspergillus niger MTCC 282 after 72 hr by serial broth dilution method. Particulars: MTCC 282, 72 h.
A further assay relates to Candida albicans. The assay is described as follows: Antimicrobial activity against Candida albicans MTCC 227 after 72 hr by serial broth dilution method. Particulars: MTCC 227, 72 h.
In a further assay the test system is Aspergillus clavatus. As to the kind of experiment: Antimicrobial activity against Aspergillus clavatus MTCC 1323 after 72 hr by serial broth dilution method. The settings on record: MTCC 1323, 72 h.
The subject of the next assay is Escherichia coli. As to the kind of experiment: Antimicrobial activity against Escherichia coli MTCC 443 after 24 hr by serial broth dilution method. The settings on record: MTCC 443, 24 h.
The test system of another assay is Pseudomonas aeruginosa. The assay is described as follows: Antimicrobial activity against Pseudomonas aeruginosa MTCC 1688 after 24 hr by serial broth dilution method. Particulars: MTCC 1688, 24 h.

In brackets after ≈: the same amount, converted by molar mass.

Broadly, the MIC is the lowest concentration that inhibits growth of the organism. Low readings indicate a more susceptible organism, high ones a less susceptible organism. On to `Cc1ccn2c(CN(C)C)c(-c3c(F)cccc3F)nc2c1`, for which the MIC in the assay on Staphylococcus aureus worked out at 250 µg/mL (≈ 830 µM); in the assay on Streptococcus pyogenes, 100 µg/mL (≈ 332 µM); in the assay with Aspergillus niger, 100 µg/mL (≈ 332 µM); against Candida albicans, 1000 µg/mL (≈ 3320 µM); in the assay on Aspergillus clavatus, 500 µg/mL (≈ 1660 µM); against Escherichia coli, 25 µg/mL (≈ 83 µM). In addition, inhibition of growth in the assay with Pseudomonas aeruginosa (MIC) required 25 µg/mL (≈ 83 µM).
Turning to `Cc1ccn2c(CN(C)C)c(-c3ccccc3O)nc2c1`, the minimal inhibitory concentration (MIC) against Staphylococcus aureus was 500 µg/mL (≈ 1780 µM); against Streptococcus pyogenes it was 500 µg/mL (≈ 1780 µM); in the assay on Aspergillus niger, 1000 µg/mL (≈ 3550 µM); with Candida albicans, 1000 µg/mL (≈ 3550 µM); with Aspergillus clavatus, 1000 µg/mL (≈ 3550 µM); in the assay on Escherichia coli, 500 µg/mL (≈ 1780 µM). Also, 500 µg/mL (≈ 1780 µM) was the least that counted as inhibitory in the assay with Pseudomonas aeruginosa (MIC).
Regarding `Cc1ccn2c(CN(C)C)c(-c3ccc(O)cc3O)nc2c1`, the MIC against Staphylococcus aureus was 500 µg/mL (≈ 1680 µM); in the assay with Streptococcus pyogenes, 250 µg/mL (≈ 841 µM); against Aspergillus niger, 1000 µg/mL (≈ 3360 µM); against Candida albicans, 1000 µg/mL (≈ 3360 µM); against Aspergillus clavatus it was 1000 µg/mL (≈ 3360 µM); against Escherichia coli it was 500 µg/mL (≈ 1680 µM). The same compound registered a minimum inhibitory concentration (MIC) in the assay with Pseudomonas aeruginosa of 500 µg/mL (≈ 1680 µM).
With `Cc1ccn2c(CN(C)C)c(-c3ccc(O)c([N+](=O)[O-])c3)nc2c1`, the minimum inhibitory concentration (MIC) came out at 500 µg/mL (≈ 1530 µM) against Staphylococcus aureus; 1000 µg/mL (≈ 3060 µM) in the assay with Streptococcus pyogenes; 1000 µg/mL (≈ 3060 µM) against Aspergillus niger; 1000 µg/mL (≈ 3060 µM) in the assay with Candida albicans; 1000 µg/mL (≈ 3060 µM) with Aspergillus clavatus; 500 µg/mL (≈ 1530 µM) with Escherichia coli. In addition, inhibition of growth with Pseudomonas aeruginosa (MIC) required 250 µg/mL (≈ 766 µM).
Regarding `Cc1ccn2c(CN(C)C)c(-c3cc([N+](=O)[O-])c(O)cc3O)nc2c1`, the MIC in the assay on Staphylococcus aureus is 500 µg/mL (≈ 1460 µM); in the assay with Streptococcus pyogenes, 250 µg/mL (≈ 730 µM); in the assay on Aspergillus niger it was 500 µg/mL (≈ 1460 µM); with Candida albicans, 500 µg/mL (≈ 1460 µM); in the assay on Aspergillus clavatus it was 500 µg/mL (≈ 1460 µM); with Escherichia coli it was 500 µg/mL (≈ 1460 µM). For the same compound, in the assay with Pseudomonas aeruginosa, the MIC stood at 250 µg/mL (≈ 730 µM).
Turning to `Cc1ccn2c(CN(C)C)c(-c3cccc(Cl)c3)nc2c1`, the MIC stood at 100 µg/mL (≈ 334 µM) against Staphylococcus aureus; 500 µg/mL (≈ 1670 µM) against Streptococcus pyogenes; 100 µg/mL (≈ 334 µM) with Aspergillus niger; 250 µg/mL (≈ 834 µM) in the assay with Candida albicans; 100 µg/mL (≈ 334 µM) in the assay with Aspergillus clavatus; 100 µg/mL (≈ 334 µM) against Escherichia coli. The same compound yielded an MIC against Pseudomonas aeruginosa of 50 µg/mL (≈ 167 µM).
On to `Cc1ccn2c(CN(C)C)c(-c3ccc(F)c(Cl)c3)nc2c1`, for which the MIC amounted to 50 µg/mL (≈ 157 µM) in the assay with Staphylococcus aureus; 50 µg/mL (≈ 157 µM) in the assay with Streptococcus pyogenes; 1000 µg/mL (≈ 3150 µM) in the assay with Aspergillus niger; 250 µg/mL (≈ 787 µM) against Candida albicans; 1000 µg/mL (≈ 3150 µM) against Aspergillus clavatus; 50 µg/mL (≈ 157 µM) with Escherichia coli. This compound also gave a minimum inhibitory concentration (MIC) with Pseudomonas aeruginosa of 100 µg/mL (≈ 315 µM).
On to `Cc1ccn2c(CN(C)C)c(-c3ccccc3Br)nc2c1`, for which the minimum inhibitory concentration (MIC) in the assay on Staphylococcus aureus stood at 500 µg/mL (≈ 1450 µM); with Streptococcus pyogenes, 250 µg/mL (≈ 726 µM); with Aspergillus niger, 50 µg/mL (≈ 145 µM); against Candida albicans it was 500 µg/mL (≈ 1450 µM); against Aspergillus clavatus, 100 µg/mL (≈ 290 µM); against Escherichia coli, 100 µg/mL (≈ 290 µM). In the assay on Pseudomonas aeruginosa, this compound showed a minimum inhibitory concentration (MIC) of 100 µg/mL (≈ 290 µM).
Turning to `Cc1ccn2c(CN(C)C)c(-c3cccc(Br)c3F)nc2c1`, the MIC came out at 250 µg/mL (≈ 690 µM) against Staphylococcus aureus; 25 µg/mL (≈ 69 µM) in the assay on Streptococcus pyogenes; 100 µg/mL (≈ 276 µM) in the assay with Aspergillus niger; 1000 µg/mL (≈ 2760 µM) with Candida albicans; 25 µg/mL (≈ 69 µM) in the assay with Aspergillus clavatus; 500 µg/mL (≈ 1380 µM) with Escherichia coli. In the assay with Pseudomonas aeruginosa, this compound gave a minimal inhibitory concentration (MIC) of 500 µg/mL (≈ 1380 µM).
Consider `Cc1ccn2c(CN(C)C)c(-c3ccc([N+](=O)[O-])cc3Br)nc2c1`, for which the MIC came out at 500 µg/mL (≈ 1280 µM) in the assay with Staphylococcus aureus; 100 µg/mL (≈ 257 µM) in the assay on Streptococcus pyogenes; 500 µg/mL (≈ 1280 µM) in the assay on Aspergillus niger; 1000 µg/mL (≈ 2570 µM) in the assay with Candida albicans; 500 µg/mL (≈ 1280 µM) against Aspergillus clavatus; 100 µg/mL (≈ 257 µM) against Escherichia coli. Further, it took 100 µg/mL (≈ 257 µM) to inhibit growth against Pseudomonas aeruginosa (MIC).
Consider `Cc1ccn2c(CN(C)C)c(-c3cccc(F)c3F)nc2c1`, for which the MIC in the assay with Staphylococcus aureus was found to be 500 µg/mL (≈ 1660 µM); against Streptococcus pyogenes, 500 µg/mL (≈ 1660 µM); against Aspergillus niger it was 250 µg/mL (≈ 830 µM); with Candida albicans, 125 µg/mL (≈ 415 µM); in the assay on Aspergillus clavatus it was 250 µg/mL (≈ 830 µM); with Escherichia coli, 50 µg/mL (≈ 166 µM). This compound came in with a minimal inhibitory concentration (MIC) in the assay on Pseudomonas aeruginosa of 250 µg/mL (≈ 830 µM).
On to `Cc1ccn2c(CN(C)C)c(-c3ccc(F)cc3F)nc2c1`, for which the minimum inhibitory concentration (MIC) was determined as 50 µg/mL (≈ 166 µM) with Staphylococcus aureus; 250 µg/mL (≈ 830 µM) against Streptococcus pyogenes; 50 µg/mL (≈ 166 µM) against Aspergillus niger; 500 µg/mL (≈ 1660 µM) against Candida albicans; 100 µg/mL (≈ 332 µM) with Aspergillus clavatus; 100 µg/mL (≈ 332 µM) with Escherichia coli. In addition, inhibition of growth in the assay with Pseudomonas aeruginosa (MIC) required 50 µg/mL (≈ 166 µM).
With `CC1(C)S[C@@H]2[C@H](NC(=O)[C@H](N)c3ccccc3)C(=O)N2[C@H]1C(=O)O` [AMPICILLIN], the minimum inhibitory concentration (MIC) amounted to 250 µg/mL (≈ 715 µM) in the assay on Staphylococcus aureus, 100 µg/mL (≈ 286 µM) in the assay on Streptococcus pyogenes, 100 µg/mL (≈ 286 µM) in the assay on Escherichia coli and 100 µg/mL (≈ 286 µM) with Pseudomonas aeruginosa.
For the compound `COC1=CC(=O)C[C@@H](C)[C@]12Oc1c(Cl)c(OC)cc(OC)c1C2=O` [GRISEOFULVIN], the minimal inhibitory concentration (MIC) in the assay on Aspergillus niger amounted to 100 µg/mL (≈ 283 µM); in the assay with Candida albicans, 500 µg/mL (≈ 1420 µM); with Aspergillus clavatus it was 100 µg/mL (≈ 283 µM).
